We go through 32 molecules from publication PMC5490409, “Anti-Mycobacterial Evaluation of 7-Chloro-4-Aminoquinolines and Hologram Quantitative Structure–Activity Relationship (HQSAR) Modeling of Amino–Imino Tautomers” (Pharmaceuticals, 2017).

One series in a line: in vitro. The settings on record: mouse.
Series [1] relates to Mycobacterium tuberculosis wild-type H37Rv strain (ATCC 27294). As to the kind of experiment: microplate Alamar blue assay (MABA), anti-mycobacterial activity. The class given is cell-based. A general note: Alamar Blue is a resazurin reagent that responds to reducing activity.
For a further series, the system named is MTB MDR strains. The settings on record: cited from earlier work.
Series [2] deals with MTB wild-type H37Rv strain. Set-up: method as in PMID 15591164. To be noted: cited from earlier work.
Series [3] has as its system macrophage cell line J774 (ATCC TIB-67).
For series [4], the system named is Mycobacterium tuberculosis wild-type H37Rv strain. The settings on record: cited from earlier work; for pMIC (pMICExp): –Log of MIC on M. tuberculosis.
A short description of series [5]: Mosmann's MTT cell viability (cytotoxicity) assay. To be noted: mouse.
Where [6] appears, read: M. tuberculosis H37Rv, MABA, read-out: MIC.
[7] abbreviates: series D, –Log of MIC of Table 1, read-out: pMIC (pMICExp) (converted).

In brackets after ≈: the same amount, converted by molar mass. Where two headings read alike, the source gives them in different places.

In “in vitro”, `COc1ccc(C=NNc2ccnc3cc(Cl)ccc23)c(Cl)c1O` [D09] displayed a viability at 48 h, 2.5 µg/mL of 80%; a viability at 48 h, 25 µg/mL of 55%; a viability at 48 h, 100 µg/mL of 48%. Besides, the MIC in series [1] (setting [6]) turned out to be 17.3 µM (≈ 6.27 µg/mL). Further, the MIC in series [1] (setting [7]) is 16.2 µM.
Regarding `COc1nc2ccc(Br)cc2cc1[C@@H](c1ccccc1)[C@@](O)(CCN(C)C)c1cccc2ccccc12` [bedaquiline], the MIC in the series on MTB MDR strains is listed as at most 0.5 µM; in series [2], at most 0.1 µM.
Take `Oc1ccc(O)c(/C=N/Nc2ccnc3cc(Cl)ccc23)c1` [D04]: in the series “in vitro”, the viability at 48 h, 2.5 µg/mL was found to be 100%; the viability at 48 h, 25 µg/mL stood at 100%; the viability at 48 h, 100 µg/mL turned out to be 70%. The “Cell Viability (%)/Dose (µg/mL) 2.5” value in series [3] was “did not show a significant cytotoxic profile”. For the same molecule, the MIC in series [1] (setting [6]) came out at 79.7 µM (≈ 25 µg/mL). Also, in series [1] (setting [7]), the MIC is 79.4 µM.
Turning to `CNc1ccnc2cc(Cl)ccc12` [A09], the “pMIC (pMICExp)” value in series [4] (series A) was 3.28.
With `Oc1ccc(C=NNc2ccnc3cc(Cl)ccc23)cc1O` [D03], in the series “in vitro”, the viability at 48 h, 2.5 µg/mL came to 78%; the viability at 48 h, 25 µg/mL came out at 35%; the viability at 48 h, 100 µg/mL turned out to be 72%. Besides, the MIC in series [1] (setting [6]) is 319 µM (≈ 100 µg/mL). Moreover, the MIC in series [1] (setting [7]) is 316 µM.
In the case of `Clc1ccc2c(N/N=C/c3ccn[nH]3)ccnc2c1` [C06], the “pMIC (pMICExp)” value in series [4] (series C) is reported as 4.94.
Turning to `Clc1ccc2c(N/N=C/c3cccc(Br)c3)ccnc2c1` [B04], the “pMIC (pMICExp)” value in series [4] (series B) is 5.06.
Turning to `COc1ccc(/C=N/Nc2ccnc3cc(Cl)ccc23)cc1OC` [D06], in “in vitro”, the viability at 48 h, 2.5 µg/mL came out at 65%; the viability at 48 h, 25 µg/mL is 8%; the viability at 48 h, 100 µg/mL was determined as 20%. Also, the MIC in series [1] (setting [6]) was determined as 7.3 µM (≈ 2.5 µg/mL). Besides, the MIC in series [1] (setting [7]) is 7.24 µM.
For `CCCNCCNc1ccnc2cc(Cl)ccc12` [A03], in series [4] (series A), the “pMIC (pMICExp)” value is given as 3.42.
In the case of `ClCCCNc1ccnc2cc(Cl)ccc12` [A13], the “pMIC (pMICExp)” value in series [4] (series A) is reported as 3.71.
For `CCCCNc1ccnc2cc(Cl)ccc12` [A12], the “pMIC (pMICExp)” value in series [4] (series A) was 4.27.
Take `Clc1ccc2c(NCCNc3ccccc3)ccnc2c1` [A05]: in series [4] (series A), the “pMIC (pMICExp)” value is reported as 3.77.
In the case of `O=[N+]([O-])c1ccc(/C=N/Nc2ccnc3cc(Cl)ccc23)s1` [C03], in series [4] (series C), the “pMIC (pMICExp)” value is on record as 5.43.
For the molecule `CC[C@@H](CO)NCCN[C@@H](CC)CO` [EMB, ethambutol], the MIC in series [1] (setting [6]) was 15.3 µM (≈ 3.13 µg/mL). In series [5], the viability at 48 h, 2.5 µg/mL is 100%; the viability at 48 h, 25 µg/mL is 93%; the viability at 48 h, 100 µg/mL amounted to 82%.
As to `CC(C)Nc1ccnc2cc(Cl)ccc12` [A11], in series [4] (series A), the “pMIC (pMICExp)” value is reported as 3.64.
As to `NCCCCCCCCCCNc1ccnc2cc(Cl)ccc12` [A08], the MIC in series [4] (series A lead, H37Rv) is 9.3 µM (≈ 3.11 µg/mL). In series [4] (series A), the “pMIC (pMICExp)” value was 5.03.
Take `Clc1ccc2c(N/N=C/c3ccco3)ccnc2c1` [C02]: the “pMIC (pMICExp)” value in series [4] (series C) is on record as 4.94.
In “in vitro”, `Clc1ccc2c(N/N=C/c3c(Cl)cccc3Cl)ccnc2c1` [D01] came in with a viability at 48 h, 2.5 µg/mL of 100%; a viability at 48 h, 25 µg/mL of 90%; a viability at 48 h, 100 µg/mL of 86%. Also, the “Cell Viability (%)/Dose (µg/mL) 2.5” value in series [3] is reported as “did not show a significant cytotoxic profile”. Further, the MIC in series [1] (setting [6]) was found to be 143 µM (≈ 50 µg/mL). Besides, the MIC in series [1] (setting [7]) is 141 µM.
In the series “in vitro”, `COc1cccc(/C=N/Nc2ccnc3cc(Cl)ccc23)c1OC` [D05] registered a viability at 48 h, 2.5 µg/mL of 98%; a viability at 48 h, 25 µg/mL of 97%; a viability at 48 h, 100 µg/mL of 85%. The “Cell Viability (%)/Dose (µg/mL) 2.5” value in series [3] is reported as “did not show a significant cytotoxic profile”. For the same molecule, the MIC in series [1] (setting [6]) amounted to 7.3 µM (≈ 2.5 µg/mL). In addition, the MIC in series [1] (setting [7]) was 7.24 µM.
With `COc1cc(/C=N/Nc2ccnc3cc(Cl)ccc23)cc(OC)c1OC` [D08], in “in vitro”, the viability at 48 h, 2.5 µg/mL worked out at 93%; the viability at 48 h, 25 µg/mL was 90%; the viability at 48 h, 100 µg/mL worked out at 69%. In series [1] (setting [6]), the MIC was found to be 16.8 µM (≈ 6.25 µg/mL). The MIC in series [1] (setting [7]) is 17 µM.
In the series “in vitro”, `COc1ccc(OC)c(/C=N/Nc2ccnc3cc(Cl)ccc23)c1` [D07] registered a viability at 48 h, 2.5 µg/mL of 40%; a viability at 48 h, 25 µg/mL of 22%; a viability at 48 h, 100 µg/mL of 47%. Moreover, the MIC in series [1] (setting [6]) was found to be 18.3 µM (≈ 6.25 µg/mL). Also, in series [1] (read-out: pMIC (pMICExp)), the MIC was 18.2 µM (≈ 6.22 µg/mL).
As to `Clc1ccc2c(N/N=C/c3ccccn3)ccnc2c1` [C07], the “pMIC (pMICExp)” value in series [4] (series C) was 4.35.
`ClCCNc1ccnc2cc(Cl)ccc12` [A01]: the “pMIC (pMICExp)” value in series [4] (series A) is given as 4.29.
Regarding `Oc1cccc(/C=N/Nc2ccnc3cc(Cl)ccc23)c1O` [D02], in the series “in vitro”, the viability at 48 h, 2.5 µg/mL worked out at 83%; the viability at 48 h, 25 µg/mL worked out at 40%; the viability at 48 h, 100 µg/mL amounted to 83%. Moreover, the MIC in series [1] (setting [6]) was 79.7 µM (≈ 25 µg/mL). Further, the MIC in series [1] (setting [7]) is 79.4 µM.
Regarding `CCCNc1ccnc2cc(Cl)ccc12` [A10], the “pMIC (pMICExp)” value in series [4] (series A) was 3.64.
Consider `NCCCCCCCCNc1ccnc2cc(Cl)ccc12` [A07], for which the “pMIC (pMICExp)” value in series [4] (series A) is reported as 4.69.
Consider `[N-]=[N+]=NCCNc1ccnc2cc(Cl)ccc12` [A02], for which the “pMIC (pMICExp)” value in series [4] (series A) is listed as 3.69.
With `Clc1ccc2c(N/N=C/c3ccc[nH]3)ccnc2c1` [C05], the “pMIC (pMICExp)” value in series [4] (series C) is on record as 4.94.
On to `Clc1ccc2c(N/N=C/c3ccc(Br)cc3)ccnc2c1` [B05], for which the “pMIC (pMICExp)” value in series [4] (series B) is listed as 5.16.
`NCCCCCCNc1ccnc2cc(Cl)ccc12` [A06]: in series [4] (series A), the “pMIC (pMICExp)” value is on record as 4.05.
For the molecule `Clc1ccc2c(N/N=C/c3cccs3)ccnc2c1` [C04], the “pMIC (pMICExp)” value in series [4] (series C) is given as 4.96.
For `O=[N+]([O-])c1ccc(/C=N/Nc2ccnc3cc(Cl)ccc23)o1` [C01], the “pMIC (pMICExp)” value in series [4] (series C) is 5.10.

The viability is a read-out of living cells in per cent, often relative to untreated cells. A low value points to a greater loss of cells.
